# What was measured:
# Type in all cases: in vivo
# [1] = system: Echinochloa oryzacola Vasing.; test: Test Example 2: herbicidal activity, application during weed generation in submerged conditions (symbol A); details: Table 23; application herbicide amount 320 g/ha; grade 0-5 by criteria of Test Example 1
# In short: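 Paddy pot test, submerged (4 cm water), alluvial soil, mixed sowing; greenhouse 25–30° C. Emulsion formulation diluted to predetermined rate, applied onto floodwater at 1–2 leaf stage. Visual herbicidal rating at 3 wk post-treatment.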
# [2] = system: Setaria viridis; test: Test Example 4: herbicidal effect by soil treatment (symbol G); details: application herbicide amount 320 g/ha
# In short: (§1)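 Seeds were sown in sterilized diluvial soil, covered with about 1.5 cm of soil, and the soil surface was sprayed with a water-diluted emulsion of the compound at a predetermined rate. Plants grew in a greenhouse at 25° C. to 30° C.; effects were scored visually 3 weeks after application.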
# [3] = system: Alopecurus myosuroides; test: Test Example 4: herbicidal effect by soil treatment (symbol J); details: application herbicide amount 320 g/ha
# In short: as §1
# [4] = system: wheat; test: Test Example 4: effect on crop by soil treatment (symbol e); details: application herbicide amount 320 g/ha
# In short: (§2)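 Plants grew in a 25° C. to 30° C. greenhouse after spot-sowing of seeds, including beet, rapeseed, wheat and rice, into sterilized diluvial soil under roughly 1.5 cm of cover soil.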
# [5] = system: Lolium multiflorum Lam.; test: Test Example 4: herbicidal effect by soil treatment (symbol K); details: application herbicide amount 320 g/ha
# In short: as §1
# [6] = system: Amaranthus retroflexus; test: Test Example 4: herbicidal effect by soil treatment (symbol N); details: application herbicide amount 320 g/ha
# In short: as §1
# [7] = system: Leptochloa chinensis; test: Test Example 3: herbicidal effect by foliage application, Wagner pot (symbol D); details: application herbicide amount 320 g/ha
# In short: (§3)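 Foliar spray of water-diluted emulsion formulation at a predetermined herbicide amount onto 14-day-old plants in flooded alluvial soil (water depth 0.1–0.5 cm), greenhouse 25–30 °C; rice sown alongside. Scored 3 wk post-application on set criteria.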
# [8] = system: directly sowed rice plant; test: Test Example 3: effect on crop by foliage application, Wagner pot (symbol b); details: application herbicide amount 320 g/ha
# In short: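 Greenhouse culture at 25–30 °C of seeded rice, Cyperus difformis, Leptochloa chinensis and Echinochloa crus-galli var. crus-galli, in alluvial soil held under 0.1–0.5 cm of water in a Wagner pot.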
# [9] = system: rice; test: Test Example 4: effect on crop by soil treatment (symbol b); details: application herbicide amount 320 g/ha
# In short: as §2
# [10] = system: Abutilon theophrasti; test: Test Example 4: herbicidal effect by soil treatment (symbol M); details: application herbicide amount 320 g/ha
# In short: as §1
# [11] = system: Chenopodium album; test: Test Example 5: herbicidal effect by foliage application, plastic box (symbol O); details: 320 g/ha, 3 weeks after application
# In short: (§4)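 Herbicide, formulated as an emulsion and diluted in water, is sprayed onto the aerial parts of 14-day seedlings. These were grown at 25° C. to 30° C. in sterilized diluvial soil; effects are graded after 3 weeks.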
# [12] = system: Cyperus difformis; test: Test Example 3: herbicidal effect by foliage application, Wagner pot (symbol E); details: application herbicide amount 320 g/ha
# In short: as §3
# [13] = system: Avena fatua; test: Test Example 4: herbicidal effect by soil treatment (symbol I); details: application herbicide amount 320 g/ha
# In short: as §1
# [14] = system: Stellaria media; test: Test Example 5: herbicidal effect by foliage application, plastic box (symbol P); details: 320 g/ha, 3 weeks after application
# In short: as §4
# [15] = system: Avena fatua; test: Test Example 5: herbicidal effect by foliage application, plastic box (symbol I); details: 320 g/ha, 3 weeks after application
# In short: as §4
# [16] = system: Chenopodium album; test: Test Example 4: herbicidal effect by soil treatment (symbol O); details: application herbicide amount 320 g/ha
# In short: as §1
# [17] = system: corn; test: Test Example 5: effect on crop by foliage application, plastic box (symbol c); details: 320 g/ha, 3 weeks after application
# In short: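 Sterilized diluvial soil, plastic box (21 × 13 × 7 cm); spot sowing, ~1.5 cm soil cover; greenhouse 25–30° C.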
compound,measurement,setting,value
CON=C(C)CC1CC(O)=C(c2c(F)cc(Br)cc2OC)C1=O (stereo not shown) [6-096],"Herbicidal effect grade, A: Echinochloa oryzacola Vasing.",[1],4 (Herbicidal ratio of 70% or higher and lower than 90%)
same,"Herbicidal effect grade, G: Setaria viridis",[2],4 (Herbicidal ratio of 70% or higher and lower than 90%)
same,"Herbicidal effect grade, J: Alopecurus myosuroides",[3],3 (Herbicidal ratio of 40% or higher and lower than 70%)
same,"Effect on crop grade, e: wheat",[4],0 (Herbicidal ratio of 5% or lower (almost no effect))
same,"Herbicidal effect grade, K: Lolium multiflorum Lam.",[5],5 (Herbicidal ratio of 90% or more (almost completely withered))
same,"Herbicidal effect grade, N: Amaranthus retroflexus",[6],0 (Herbicidal ratio of 5% or lower (almost no effect))
same,"herbicidal effect on D (Leptochloa chinensis), grade 0-5",[7],4 (Herbicidal ratio of 70% or higher and lower than 90%)
same,"effect on crop b (directly sowed rice plant), grade 0-5",[8],5 (Herbicidal ratio of 90% or more (almost completely withered))
same,"Effect on crop grade, b: directly sowed rice plant",[9],5 (Herbicidal ratio of 90% or more (almost completely withered))
same,"Herbicidal effect grade, M: Abutilon theophrasti",[10],0 (Herbicidal ratio of 5% or lower (almost no effect))
same,"O: Chenopodium album, herbicidal effect (criteria of Test Example 1)",[11],1 (Herbicidal ratio of 5% or higher and lower than 20%)
same,"herbicidal effect on E, grade 0-5",[12],5 (Herbicidal ratio of 90% or more (almost completely withered))
same,"Herbicidal effect grade, I: Avena fatua",[13],3 (Herbicidal ratio of 40% or higher and lower than 70%)
same,"P: Stellaria media, herbicidal effect (criteria of Test Example 1)",[14],1 (Herbicidal ratio of 5% or higher and lower than 20%)
same,"I: Avena fatua, herbicidal effect (criteria of Test Example 1)",[15],5 (Herbicidal ratio of 90% or more (almost completely withered))
same,"Herbicidal effect grade, O: Chenopodium album",[16],0 (Herbicidal ratio of 5% or lower (almost no effect))
CC(=O)CC1CC(O)=C(c2c(C)cc(-c3ccccc3)cc2C)C1=O (stereo not shown) [7-004],"Herbicidal effect grade, A: Echinochloa oryzacola Vasing.",[1],4 (Herbicidal ratio of 70% or higher and lower than 90%)
same,"Herbicidal effect grade, G: Setaria viridis",[2],5 (Herbicidal ratio of 90% or more (almost completely withered))
same,"Herbicidal effect grade, J: Alopecurus myosuroides",[3],5 (Herbicidal ratio of 90% or more (almost completely withered))
same,"Effect on crop grade, e: wheat",[4],0 (Herbicidal ratio of 5% or lower (almost no effect))
same,"Herbicidal effect grade, K: Lolium multiflorum Lam.",[5],5 (Herbicidal ratio of 90% or more (almost completely withered))
same,"Herbicidal effect grade, N: Amaranthus retroflexus",[6],2 (Herbicidal ratio of 20% or higher and lower than 40%)
same,"c: corn, effect on crop (criteria of Test Example 1)",[17],5 (Herbicidal ratio of 90% or more (almost completely withered))
same,"herbicidal effect on D (Leptochloa chinensis), grade 0-5",[7],5 (Herbicidal ratio of 90% or more (almost completely withered))
same,"effect on crop b (directly sowed rice plant), grade 0-5",[8],5 (Herbicidal ratio of 90% or more (almost completely withered))
same,"Effect on crop grade, b: directly sowed rice plant",[9],5 (Herbicidal ratio of 90% or more (almost completely withered))
same,"Herbicidal effect grade, M: Abutilon theophrasti",[10],3 (Herbicidal ratio of 40% or higher and lower than 70%)
same,"O: Chenopodium album, herbicidal effect (criteria of Test Example 1)",[11],2 (Herbicidal ratio of 20% or higher and lower than 40%)
same,"herbicidal effect on E, grade 0-5",[12],5 (Herbicidal ratio of 90% or more (almost completely withered))
same,"Herbicidal effect grade, I: Avena fatua",[13],0 (Herbicidal ratio of 5% or lower (almost no effect))
same,"P: Stellaria media, herbicidal effect (criteria of Test Example 1)",[14],0 (Herbicidal ratio of 5% or lower (almost no effect))
same,"I: Avena fatua, herbicidal effect (criteria of Test Example 1)",[15],2 (Herbicidal ratio of 20% or higher and lower than 40%)
same,"Herbicidal effect grade, O: Chenopodium album",[16],0 (Herbicidal ratio of 5% or lower (almost no effect))
CON=C(C)CC1CC(OC(=O)COc2ccccc2)=C(c2c(C)cc(-c3ccc(Cl)cc3Cl)cc2C)C1=O (stereo not shown) [6-092],"Herbicidal effect grade, A: Echinochloa oryzacola Vasing.",[1],1 (Herbicidal ratio of 5% or higher and lower than 20%)
same,"Herbicidal effect grade, G: Setaria viridis",[2],5 (Herbicidal ratio of 90% or more (almost completely withered))
same,"Herbicidal effect grade, J: Alopecurus myosuroides",[3],3 (Herbicidal ratio of 40% or higher and lower than 70%)
same,"Effect on crop grade, e: wheat",[4],0 (Herbicidal ratio of 5% or lower (almost no effect))
same,"Herbicidal effect grade, K: Lolium multiflorum Lam.",[5],5 (Herbicidal ratio of 90% or more (almost completely withered))
same,"Herbicidal effect grade, N: Amaranthus retroflexus",[6],0 (Herbicidal ratio of 5% or lower (almost no effect))
same,"c: corn, effect on crop (criteria of Test Example 1)",[17],2 (Herbicidal ratio of 20% or higher and lower than 40%)
same,"herbicidal effect on D (Leptochloa chinensis), grade 0-5",[7],5 (Herbicidal ratio of 90% or more (almost completely withered))
same,"effect on crop b (directly sowed rice plant), grade 0-5",[8],5 (Herbicidal ratio of 90% or more (almost completely withered))
same,"Effect on crop grade, b: directly sowed rice plant",[9],4 (Herbicidal ratio of 70% or higher and lower than 90%)
same,"Herbicidal effect grade, M: Abutilon theophrasti",[10],0 (Herbicidal ratio of 5% or lower (almost no effect))
same,"O: Chenopodium album, herbicidal effect (criteria of Test Example 1)",[11],5 (Herbicidal ratio of 90% or more (almost completely withered))
same,"herbicidal effect on E, grade 0-5",[12],4 (Herbicidal ratio of 70% or higher and lower than 90%)
same,"Herbicidal effect grade, I: Avena fatua",[13],3 (Herbicidal ratio of 40% or higher and lower than 70%)
same,"P: Stellaria media, herbicidal effect (criteria of Test Example 1)",[14],3 (Herbicidal ratio of 40% or higher and lower than 70%)
same,"I: Avena fatua, herbicidal effect (criteria of Test Example 1)",[15],5 (Herbicidal ratio of 90% or more (almost completely withered))
same,"Herbicidal effect grade, O: Chenopodium album",[16],0 (Herbicidal ratio of 5% or lower (almost no effect))
CON=C(C)C(=NOC)C1CC(O)=C(c2c(C)cc(C)cc2C)C1=O (stereo not shown) [8-003],"Herbicidal effect grade, A: Echinochloa oryzacola Vasing.",[1],0 (Herbicidal ratio of 5% or lower (almost no effect))
same,"Herbicidal effect grade, G: Setaria viridis",[2],0 (Herbicidal ratio of 5% or lower (almost no effect))
same,"Herbicidal effect grade, J: Alopecurus myosuroides",[3],0 (Herbicidal ratio of 5% or lower (almost no effect))
same,"Effect on crop grade, e: wheat",[4],0 (Herbicidal ratio of 5% or lower (almost no effect))
same,"Herbicidal effect grade, K: Lolium multiflorum Lam.",[5],0 (Herbicidal ratio of 5% or lower (almost no effect))
same,"Herbicidal effect grade, N: Amaranthus retroflexus",[6],0 (Herbicidal ratio of 5% or lower (almost no effect))
same,"c: corn, effect on crop grade",[17],0 (Herbicidal ratio of 5% or lower (almost no effect))
same,D (Leptochloa chinensis) herbicidal effect grade,[7]; Table 24,0 (Herbicidal ratio of 5% or lower (almost no effect))
same,b (directly sowed rice plant) effect on crop grade,[8]; Table 24,0 (Herbicidal ratio of 5% or lower (almost no effect))
same,"Effect on crop grade, b: directly sowed rice plant",[9],0 (Herbicidal ratio of 5% or lower (almost no effect))
same,"Herbicidal effect grade, M: Abutilon theophrasti",[10],0 (Herbicidal ratio of 5% or lower (almost no effect))
same,"O: Chenopodium album, herbicidal effect grade",[11],0 (Herbicidal ratio of 5% or lower (almost no effect))
same,E herbicidal effect grade,[12]; Table 24,0 (Herbicidal ratio of 5% or lower (almost no effect))
same,"Herbicidal effect grade, I: Avena fatua",[13],0 (Herbicidal ratio of 5% or lower (almost no effect))
same,"P: Stellaria media, herbicidal effect grade",[14],0 (Herbicidal ratio of 5% or lower (almost no effect))
same,"I: Avena fatua, herbicidal effect grade",[15],0 (Herbicidal ratio of 5% or lower (almost no effect))
same,"Herbicidal effect grade, O: Chenopodium album",[16],0 (Herbicidal ratio of 5% or lower (almost no effect))
